# Measurements published in ChEMBL document CHEMBL3621190, “Fused Morphlinopyrimidines and Methods of Use Thereof” (ACS Med Chem Lett, 2015).
# Molecular target: Gamma-secretase
# Assay: Inhibition of gamma-secretase in human H4 cells expressing human wild type […] cDNA assessed as reduction in amyloid beta peptides incubated for 16 to 18 hrs by ELISA method
# Format: cell-based
row,IC50,Compound
1,56 nM,COc1cc(N2CCC(Nc3ncc4c(n3)N(c3cc(F)c(F)c(F)c3)CCO4)CC2)ccn1
2,20.8 nM,COc1cc(N2CCC(Nc3ncc4c(n3)N(c3ccccc3OC(F)(F)F)CCO4)CC2)ccn1
3,90 nM,Cc1ccccc1N1CCOc2cnc(NC3CCN(c4ccnc(Cl)c4)CC3)nc21
4,54.3 nM,Clc1cc(N2CCC(Nc3ncc4c(n3)N(c3ccccc3)CCO4)CC2)ccn1
5,25.6 nM,COc1cc(N2CCC(Nc3ncc4c(n3)N(c3cc(F)cc(F)c3)CCO4)CC2)ccn1
6,11.9 nM,COc1cc(N2CCC(Nc3ncc4c(n3)N(c3ccc(F)cc3C(F)(F)F)CCO4)CC2)ccn1
7,25.4 nM,COc1cc(N2CCC(Nc3ncc4c(n3)N(c3ccc(Cl)cc3)CCO4)CC2)ccn1
8,54.8 nM,COc1cc(N2CCC(Nc3ncc4c(n3)N(c3ccccc3Cl)CCO4)CC2)ccn1
9,30.5 nM,COc1cc(N2CCC(Nc3ncc4c(n3)N(c3ccc(F)cc3)CCO4)CC2)ccn1
10,58.5 nM,COc1cc(N2CCC(Nc3ncc4c(n3)N(c3ccccc3C)CCO4)CC2)ccn1
11,72.4 nM,COc1cc(N2CCC(Nc3ncc4c(n3)N(c3ccc(F)cc3F)CCO4)CC2)ccn1
12,25.2 nM,COc1cc(N2CCC(Nc3ncc4c(n3)N(c3ccccc3)CCO4)CC2)ccn1
